Experimental data reported in publication PMC10709440, “High-throughput ligand profile characterization in novel cell lines expressing seven heterologous insect olfactory receptors for the detection of volatile plant biomarkers” (Scientific Reports, 2023).

Key:
[1] = molecular target: T1, Drosophila OR13a (Drosophila melanogaster, UniProt Q9VXL0); assay: Calcium ion fluorescence (GCaMP6) assay, OR13a stable HEK293 cell line; format: cell-based
T1 construct: expressed in transfected cells
T1 sequence (Q9VXL0 1-418): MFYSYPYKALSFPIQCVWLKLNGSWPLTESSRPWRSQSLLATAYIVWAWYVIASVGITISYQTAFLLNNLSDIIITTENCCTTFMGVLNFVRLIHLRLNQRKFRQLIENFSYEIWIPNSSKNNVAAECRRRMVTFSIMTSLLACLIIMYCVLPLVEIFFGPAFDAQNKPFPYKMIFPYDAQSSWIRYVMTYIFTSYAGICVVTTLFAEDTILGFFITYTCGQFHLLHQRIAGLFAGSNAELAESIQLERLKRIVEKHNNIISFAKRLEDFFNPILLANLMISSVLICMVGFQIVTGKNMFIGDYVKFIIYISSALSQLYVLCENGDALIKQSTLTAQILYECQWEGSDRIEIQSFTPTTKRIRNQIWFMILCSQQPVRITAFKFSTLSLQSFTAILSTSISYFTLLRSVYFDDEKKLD
T1 sequence (Q9VNB5 1-486 partner): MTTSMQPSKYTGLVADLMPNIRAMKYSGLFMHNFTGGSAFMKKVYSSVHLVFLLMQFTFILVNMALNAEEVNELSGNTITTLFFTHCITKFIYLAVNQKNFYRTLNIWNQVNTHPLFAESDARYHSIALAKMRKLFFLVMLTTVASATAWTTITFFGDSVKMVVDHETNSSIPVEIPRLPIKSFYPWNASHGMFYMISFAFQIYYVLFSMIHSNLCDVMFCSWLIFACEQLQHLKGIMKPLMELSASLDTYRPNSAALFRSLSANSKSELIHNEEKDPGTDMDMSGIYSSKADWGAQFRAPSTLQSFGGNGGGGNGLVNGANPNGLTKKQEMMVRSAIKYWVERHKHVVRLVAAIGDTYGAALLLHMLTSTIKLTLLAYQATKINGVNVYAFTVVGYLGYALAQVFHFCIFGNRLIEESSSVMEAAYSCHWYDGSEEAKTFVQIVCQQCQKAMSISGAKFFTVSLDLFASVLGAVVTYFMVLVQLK
Protocol: These VUAA1 normalized ∆F values were used to compare the different receptors and ligands.
The concentration-dependent effect of the reference ligands on their cognate cell lines was examined in more detail. Twelve different ligand concentrations were measured on each cell line in an overall 0.01 μM to 100 μM concentration range with 5 repetitions with three technical replicates each time.
Twelve thousand to 18,000 cells were plated into each well of a black wall, transparent bottom 384-well microplate (Greiner) 48 h or 72 h before the measurements and were simultaneously treated with 1 μg/mL doxycycline. […] The plate has 24 columns, thus we could record responses in up to eight different cell lines in each plate. On the day of the experiment, the growth medium was replaced with 20 µL assay buffer/well (140 mM NaCl, 5 mM KCl, 2 mM CaCl2, 1 mM MgCl2, 5 mM HEPES-Na, 20 mM glucose, pH 7.3, 340 mOsm). […] Baseline fluorescence (F0) was recorded for 5 s, after which 7 µL VOC buffer (140 mM NaCl, 5 mM KCl, 2 mM CaCl2, 1 mM MgCl2, 5 mM HEPES-Na, 31 mM glucose, 0.1% DMSO, pH 7.3, 340 mOsm) was injected into each well in one row and the fluorescence response was recorded for an additional 30 s, at a rate of one read/sec. VOC solutions (VOC buffer with 4× concentration of the final measured VOC concentration, 9 µL/well was injected) were measured on the same wells in a second round with the same protocol. Each individual concentration of a specific VOC sample was recorded in three wells for the same cell line on the same microplate. The raw data were exported in xls file format, F0 and FMAX values, and the fluorescence intensity changes (∆F) were calculated in Excel (Microsoft) (Supplementary file Data summary.xlsx) using the following equation: ΔF=FMAX-F0/F0 (see also Fig. 1C). On each plate, we recorded the response of each cell line to 50 µM VUAA1. The average of these ∆F values of each cell line were used to calculate the VUAA1-normalized values for the rest of the plate, by dividing VOC response ∆F values by the average VUAA1 response ∆F value of the corresponding OR cell line. Each VOC-OR combination was measured three times as technical replicates. […] The average of these replicates were used as one ∆F and VUAA1-normalized ∆F in the following analysis.
In the next rows we tested the reference VOCs (or other VOCs known to activate the corresponding cell lines), in order to test if all cell lines are responsive. The remaining rows were used to test VOCs with unknown effect.
The recorded FMAX, F0, ∆F, VUAA1-normalized ∆F values, as well as the OR name, the name of the tested sample, and the final concentration for each well were copied into supplementary file Data summary.xlsx, that was used to summarize all the plates recorded. Here, the averages of the measurements were calculated for each receptor-VOC-concentration combination.

[2] = molecular target: T2, Drosophila OR47a (Drosophila melanogaster, UniProt P81921); assay: Calcium ion fluorescence (GCaMP6) assay, OR47a stable HEK293 cell line; format: cell-based; conditions: for Average response: mean of biological replicates
T2 construct: expressed in transfected cells
T2 sequence (P81921 1-385): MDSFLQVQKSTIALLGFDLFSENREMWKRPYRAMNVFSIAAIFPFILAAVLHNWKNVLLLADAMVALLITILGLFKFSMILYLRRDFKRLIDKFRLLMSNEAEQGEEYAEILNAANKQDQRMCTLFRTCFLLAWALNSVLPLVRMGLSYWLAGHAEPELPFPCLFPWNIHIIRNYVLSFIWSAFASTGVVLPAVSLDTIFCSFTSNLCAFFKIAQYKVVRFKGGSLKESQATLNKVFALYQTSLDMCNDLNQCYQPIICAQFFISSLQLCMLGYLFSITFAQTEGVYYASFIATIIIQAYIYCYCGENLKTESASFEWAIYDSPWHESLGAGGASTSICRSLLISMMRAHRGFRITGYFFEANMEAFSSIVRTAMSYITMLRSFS
T2 sequence (Q9VNB5 1-486 partner): T1 sequence (Q9VNB5 1-486 partner)
How it was run: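 HEK293 lines stably expressing each Drosophila OR with GCaMP6, doxycycline-induced (1 μg/mL) 48 or 72 h. Fluorescence recorded 5 s baseline then 30 s after VOC injection at pH 7.3; ΔF=(FMAX−F0)/F0, normalized to 50 µM VUAA1 response per line, triplicate wells averaged; concentration series 0.01–100 μM.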

[3] = 1 μM VOC, 50 μM VUAA1 = 1, responses not exceeding 0.05 considered 0
[4] = 10 μM VOC, 50 μM VUAA1 = 1, responses not exceeding 0.05 considered 0
[5] = 100 μM VOC, 50 μM VUAA1 = 1, responses not exceeding 0.05 considered 0
[6] = concentration 1, normalized fluorescence change, values below 0.05 threshold given as 0
[7] = concentration 10, normalized fluorescence change, values below 0.05 threshold given as 0
[8] = concentration 100, normalized fluorescence change, values below 0.05 threshold given as 0
[9] = OR47a cell line, odorant cc. 1 µM
[10] = OR47a cell line, odorant cc. 10 µM
[11] = OR47a cell line, odorant cc. 100 µM
[12] = ligand concentration 1 (unit not given), 0.05 threshold, values below shown as 0
[13] = ligand concentration 10 (unit not given), 0.05 threshold, values below shown as 0
[14] = ligand concentration 100 (unit not given), 0.05 threshold, values below shown as 0

| Molecule | OR13a Average response (VUAA1-normalized) [1, 3] | OR13a Average response (VUAA1-normalized) [1, 4] | OR13a Average response (VUAA1-normalized) [1, 5] | OR13a response (VUAA1-normalized response) ([1]; VOC concentration 1 μM) | OR13a response (VUAA1-normalized response) ([1]; VOC concentration 10 μM) | OR13a response (VUAA1-normalized response) ([1]; VOC concentration 100 μM) | DF norm AVERAGE OR13a [1, 6] | DF norm AVERAGE OR13a [1, 7] | DF norm AVERAGE OR13a [1, 8] | Average response [2, 9] | Average response [2, 10] | Average response [2, 11] | OR47a response (VUAA1-normalized response) ([2]; VOC concentration 1 μM) | OR47a response (VUAA1-normalized response) ([2]; VOC concentration 10 μM) | OR47a response (VUAA1-normalized response) ([2]; VOC concentration 100 μM) | DF norm AVERAGE OR47a [2, 6] | DF norm AVERAGE OR47a [2, 7] | DF norm AVERAGE OR47a [2, 8] | also measured |
| --- | --- | --- | --- | --- | --- | --- | --- | --- | --- | --- | --- | --- | --- | --- | --- | --- | --- | --- | --- |
| (+)-beta-cedrene | 0.00 | 0.00 | 0.00 | 0.00 | 0.00 | 0.00 | 0 | 0 | 0 | 0.00 | 0.00 | 0.00 | 0.00 | 0.00 | 0.00 | 0 | 0 | 0 |  |
| CCCCCCCCCCC [undecane] |  |  |  |  |  |  |  |  |  | 0.00 | 0.00 | 0.00 |  |  |  |  |  |  | activation at 1 µM ([1]; HEK293, read-out: OR13a Average response (VUAA1-normalized), 1 μM VOC, 50 μM VUAA1 = 1, responses not exceeding 0.05 considered 0): 0%; activation at 10 µM ([1]; HEK293, read-out: OR13a Average response (VUAA1-normalized), 10 μM VOC, 50 μM VUAA1 = 1, responses not exceeding 0.05 considered 0): 0%; activation at 100 µM ([1]; HEK293, read-out: OR13a Average response (VUAA1-normalized), 100 μM VOC, 50 μM VUAA1 = 1, responses not exceeding 0.05 considered 0): 0%; OR13a response (VUAA1-normalized) at 1 μM ([1]; OR13a cell line, VOC concentration 1 μM): 0.00; OR13a response (VUAA1-normalized) at 10 μM ([1]; OR13a cell line, VOC concentration 10 μM): 0.00; OR13a response (VUAA1-normalized) at 100 μM ([1]; OR13a cell line, VOC concentration 100 μM): 0.00; DF norm AVERAGE OR13a [1, 12]: 0; DF norm AVERAGE OR13a [1, 13]: 0; DF norm AVERAGE OR13a [1, 14]: 0; OR47a response (VUAA1-normalized) at 1 μM ([2]; OR47a cell line, VOC concentration 1 μM): 0.00; OR47a response (VUAA1-normalized) at 10 μM ([2]; OR47a cell line, VOC concentration 10 μM): 0.00; OR47a response (VUAA1-normalized) at 100 μM ([2]; OR47a cell line, VOC concentration 100 μM): 0.00; DF norm AVERAGE OR47a [2, 12]: 0; DF norm AVERAGE OR47a [2, 13]: 0; DF norm AVERAGE OR47a [2, 14]: 0 |
| (-)-alpha-cedrene | 0.00 | 0.00 | 0.00 | 0.00 | 0.00 | 0.00 | 0 | 0 | 0 | 0.00 | 0.00 | 0.02 | 0.00 | 0.00 | 0.00 | 0 | 0 | 0 |  |
